We go through one molecule from patent publication EP0238198A2, “Method of modifying the lipid structure function and expression of cell membranes and pharmaceutical compositions for use therein” (Habib, Nagy Adly, priority 1986, dated 1987).

SMILES strings stand for the structures.

The subject of one assay is malignant cells. Briefly: tumour development in animals implanted with malignant cells. The format is in vivo.
Assay [1] concerns Primary rat fibroblasts (from alveolar tissue). Nature of the assay: colony inhibition test (clonogenic assay). The format is cell-based. Particulars: for Mean no colonies ± SE: 5 days, medium control 55.0±4.6. On the procedure: Cells from rat mammary carcinoma (Sp 22), primary rat fibroblasts (from alveolar tissue) and four rat hepatoma cell lines (D23, D261, D262A and D262B) were studied.
The method used for rat cells was as follows: 200 cells were plated per dish in 1 ml 'Eagles' methionine enriched medium (MEM) + 10% newborn calf serum (NBCS) in 30 mm culture dishes and incubated for four hours at 37°C. […] Dilutions containing 20 µg/ml, […], 200 ng/ml and 2 ng/ml were prepared, 1 ml of each dilution was added to four dishes of cells, the final concentration being half the concentration of the material added. […] To control dishes 1 ml of MEM + NBCS was added, or 1 ml of MEM + NBCS + 1% ethanol. The dishes were incubated for 5 days. Medium was then removed, and the cell colonies were rinsed with 0.9% W/V NaCl solution and fixed for 15 minutes with methanol. Cell colonies were stained with 1% aqueous crystal violet and the dishes were allowed to dry.

Where [2] appears, read: Rattus norvegicus, Fibroblast, 120 h, read-out: % colony formation relative to medium control.

With `CCCCCCCCCCCCCCCCCC(=O)O` [stearic acid, octadecanoic acid], the development of tumours result in the assay with malignant cells is listed as “inhibits the development of tumours”. Moreover, in assay [1] (setting [2]), the activity at 0.001 µg/mL was determined as 90%, the activity at 0.01 µg/mL amounted to 108%, the activity at 0.1 µg/mL stood at 85.8% and the activity at 1 µg/mL was found to be 88.2%. Moreover, in assay [1] (setting [2]), the activity at 10 µg/mL came to 96.5% and the activity at 50 µg/mL came out at 86.4%. Moreover, in assay [1] (stearic acid 1ng/ml), the “Mean no colonies ± SE” value is on record as 49.5±9.5. Further, in assay [1] (stearic acid 100 ng/ml), the “Mean no colonies ± SE” value stood at 47.2±9.4. Moreover, in assay [1] (stearic acid 1µg/ml), the “Mean no colonies ± SE” value came out at 48.5±9.2. The “Mean no colonies ± SE” value in assay [1] (stearic acid 10 µg/ml) was found to be 52.0±7.7. Besides, in assay [1] (stearic acid 50 µg/ml), the “Mean no colonies ± SE” value is reported as 47.5±6.0. For the same molecule, the “inhibition of colony development” value in assay [1] (summary of Table 2) is reported as “failed to inhibit”.
